Legend:
[1] = test system: human CD4+ and CD8+ T cells; assay: Cytokine secretion (Luminex) in extended hybrid Th2/TREG culture with temsirolimus or pemetrexed; assay type: cell-based; details: hybrid TREG-Th2 condition; temsirolimus 1.0 μM or pemetrexed 10 nM
Source text: (§1) FIGS. 21A-21D illustrates that extended culture of de-differentiated T cells in the hybrid Th2/TREG polarization condition results in the generation of T cells expressing with a predominant Th2 cytokine phenotype: IL-4, IL-5, and IL-13 secretion. […] At days 12, 20, and 32 of culture, the T cells were harvested, washed, and re-stimulated with 3/28 beads (3:1 ratio) for 24 hr; the resultant supernatant was harvested and tested for cytokine content by Luminex multi-analyte method. All results shown are expressed as cytokine level in pg per ml per 1×10^6 cells/ml/24 hr. The Th2 cytokine IL-10 was also evaluated: all values were less than 20 pg/ml per 1×10^6 cells/ml/24 hr.
as §1, with “22A-22D illustrate” for “21A-21D illustrates”, “IL-2, IFN-γ,” for “IL-4, IL-5,”, “GM-CSF” for “IL-13”, “inflammatory cytokines IL-17 and TNF-α were” for “Th2 cytokine IL-10 was”

[2] = test system: human CD4+ and CD8+ T cells; assay: RNA expression of Th1 transcription factors and HIF-1-α after 3-day culture (Luminex Quantigene); assay type: cell-based; details: bead:T cell 1:3, temsirolimus 1 μM, Vitamin D 0.1 to 1.0 nM, relative to control culture
Procedure: (§2) At the end of the de-differentiation interval, cells were harvested, RNA was isolated, and RNA expression analysis was performed by Luminex Quantigene method. All results shown represent relative RNA expression, with results normalized to a value of 1.0 for the Th1/Tc1 control culture.

[3] = test system: human CD4+ and CD8+ T cells; assay: RNA expression of T cell effector molecules after 3-day de-differentiation culture (Luminex Quantigene); assay type: cell-based; details: 3-day culture, bead:T cell 1:3, temsirolimus 1 μM, Vitamin D 0.1 or 1.0 nM; relative to control Th1/Tc1 culture
Procedure: as §2

CD8+ T cells = assay: Flow cytometry of CD8+ T cell memory markers after de-differentiation interval; assay type: cell-based, human; details: reducing or eliminating only temsirolimus from the initial culture interval (columns #5 and 6)
Procedure: After the 3-day interval, media was exchanged to fresh X-Vivo 20 without inhibitors, high-level co-stimulation was provided (3:1 bead-to-T cell ratio), and the T cell growth cytokines IL-2 (100 IU/ml) and IL-7 (10 ng/ml) were added. T cells were subjected to flow cytometry for evaluation of co-expression of CD8^+, CD62L^+, and CCR7^+ markers (left panel; evaluated at day 10 of culture); and co-expression of CD8^+, CD62L^+, CCR7^+, and CD127^+ markers (right panel; evaluated at day 10 of culture). All results are shown relative to the value of CD8^+ T cells at culture initiation (last column in FIGS. 10A-10B; “Day 0 Input Value”).

[4] = test system: human CD4+ and CD8+ T cells; assay: Western blot for mTORC1-related molecule Raptor after 3-day de-differentiation culture; assay type: cell-based
Source text: After the 3-day culture interval, the T cells were harvested, and protein was isolated and subjected to western blot analysis for the mTORC1 complex protein, Raptor, and the housekeeping gene, Actin.

[5] = test system: human CD4+ and CD8+ T cells; assay: RNA expression of de-differentiation transcription factors and IL-7 receptor alpha after 3-day culture (Luminex Quantigene); assay type: cell-based; details: bead:T cell 1:3, temsirolimus 1 μM, relative to control culture
Procedure: as §2

[6] = test system: human CD4+ and CD8+ T cells; assay: Western blot for Raptor, Rictor, p70S6K and SGK1 after 3-day de-differentiation culture; assay type: cell-based; details: combination agent de-differentiation: temsirolimus 1 μM, Vitamin D 0.03 to 1.0 nM, Daclizumab 50 μg/ml; relative to control culture
Source text: After the 3-day culture interval, the T cells were harvested, and protein was isolated and subjected to western blot analysis for the mTORC1 complex protein, Raptor; the mTORC2 complex protein, Rictor; the post-mTORC1 protein p70S6K; the post-mTORC2 protein, SGK1; and the housekeeping gene, GAPDH.

[7] = test system: human CD4+ and CD8+ T cells; assay: T cell yield at day 13 after de-differentiation and re-stimulation without inhibitors; assay type: cell-based
Procedure: After 10 days (13 days of total culture), the T cells were harvested, enumerated, and evaluated by flow cytometry. FIG. 8 illustrates the effect of culture components during the de-differentiation interval on subsequent T cell yield (at day 13 of culture). […] After the 3-day interval, media was exchanged to fresh X-Vivo 20 without inhibitors, high-level co-stimulation was provided (3:1 bead-to-T cell ratio), and the T cell growth cytokines IL-2 (100 IU/ml) and IL-7 (10 ng/ml) were added. At day 13 of culture, viable T cells were enumerated and the overall yield is shown relative to day 0 input number.

CD4+ T cells = assay: Flow cytometry of CD4+ T cell memory markers after de-differentiation interval; assay type: cell-based, human
Procedure: FIGS. 9A-9C illustrate the effect of culture components during the de-differentiation interval on CD4^+ T cell expression of memory markers (at day 13 of culture). […] After the 3-day interval, media was exchanged to fresh X-Vivo 20 without inhibitors, high-level co-stimulation was provided (3:1 bead-to-T cell ratio), and the T cell growth cytokines IL-2 (100 IU/ml) and IL-7 (10 ng/ml) were added. […] All results are shown relative to the value of CD4^+ T cells at culture initiation (last column in FIGS. 9A-9C; “Day 0 Input Value”).

CD4+ and CD8+ T cells = assay: Flow cytometry of GATA3 and FOXP3 in Th2/TREG cell product after 6-day culture; assay type: cell-based, human; details: control manufacturing culture that did not include IL-4
Source text: After the 6-day culture, the T cells were harvested, stained for surface markers (CD4 and CD8) and intracellular molecule expression (GATA3 and FOXP3) and evaluated by flow cytometry. Results in FIGS. 26A-B show the FOXP3 and GATA3 expression for CD4+ and CD8+ T cells at the start of culture and after culture (Th2/TREG) as measured by flow cytometry. The percentages provided indicate the amount of cells considered positive for CD4+ or CD8+ and the intracellular marker (shown in boxes).

[8] = test system: human CD4+ and CD8+ T cells; assay: Cytokine secretion (Luminex) after 10-day re-differentiation in polarization conditions; assay type: cell-based; details: lack of IL-4 inclusion in the T cell re-differentiation process
Source text: FIGS. 16A-16C illustrate that the culture of de-differentiated T cells in hybrid Th2/TReg polarization condition results in the generation of T cells with a primitive Th2 cell cytokine phenotype: as indicated by high levels of IL-2 and IL-4 secretion and a low level of IL-5 secretion. Human CD4+ and CD8^+ T cells were subjected to a 3-day de-differentiation procedure and subsequent culture in media containing variable polarization culture conditions and variable presence of pemetrexed, as described in FIG. 13. Out of the total of n=24 culture conditions, only the cultures with favorable cell yields were further evaluated; all cultures shown that contained pemetrexed (“+”) were at the concentration of 10 nM. The TREG conditions above all contained IL-2, TGF-β, and IL-4 (“TReg”) unless indicated (“TReg, No IL4”). […] All results shown are expressed as cytokine level in pg per ml per 1×10^6 cells/ml/24 hr.
FIGS. 17A-17C illustrate that the culture of de-differentiated T cells in hybrid Th2/TReg polarization condition results in the generation of T cells with a primitive Th2 cell cytokine phenotype: as indicated by low levels of IL-10, IL-13, and IL-17 secretion. […] Out of the total of n=24 culture conditions, only the cultures with favorable cell yields were further evaluated; all cultures shown that contained pemetrexed (“+”) were at the concentration of 10 nM. […] All results shown are expressed as cytokine level in pg per ml per 1×10^6 cells/ml/24 hr.
FIGS. 18A-18C illustrates that the culture of de-differentiated T cells in hybrid Th2/TREG polarization condition results in the generation of T cells with a primitive Th2 cell cytokine phenotype: as indicated by low levels of IFN-gamma, TNF-alpha, and GM-CSF secretion. […] Out of the total of n=24 culture conditions, only the cultures with favorable cell yields were further evaluated; all cultures shown that contained pemetrexed (“+”) were at the concentration of 10 nM. […] All results shown are expressed as cytokine level in pg per ml per 1×10^6 cells/ml/24 hr.

[9] = test system: human CD4+ and CD8+ T cells; assay: Western blot for pro-apoptosis molecule BIM after 3-day de-differentiation culture; assay type: cell-based; details: 3-day culture, bead:T cell 1:3; Vitamin D 0.1 nM, Daclizumab 50 μg/ml
Source text: After the 3-day culture interval, the T cells were harvested, and protein was isolated and subjected to western blot analysis for the pro-apoptosis-related gene, BIM, and the housekeeping gene, Actin.
To assess this, we measured BIM levels in the T cells cultured with a low-strength of co-stimulation (1:3 bead-to-T cell ratio) and presence of the various inhibitors.

[10] = Vitamin D 1.0 nM in combination

CO[C@H]1C[C@@H]2CC[C@@H](C)[C@@](O)(O2)C(=O)C(=O)N2CCCC[C@H]2C(=O)O[C@H]([C@H](C)C[C@@H]2CC[C@@H](OC(=O)C(C)(CO)CO)[C@H](OC)C2)CC(=O)[C@H](C)/C=C(\C)[C@@H](O)[C@@H](OC)C(=O)[C@H](C)C[C@H](C)/C=C/C=C/C=C/1C [temsirolimus]
IL-5 secretion [1]: blunted
IL-13 secretion [1]: blunted
HIF-1-α RNA expression [2]: did not down-regulate
STAT1 RNA expression [2]: acts alone to beneficially down-regulate
T-BET RNA expression [2]: acts alone to beneficially down-regulate
Granzyme B RNA expression [3]: reduction
IFN-gamma RNA expression [3]: reduction
IL-10 RNA expression [3]: reduction
frequency of CD8+ triple-positive (CD62L, CCR7, CD127) T cells (CD8+ T cells): greatly reduced the frequency of triple-positive T cells
optimal dose for down-regulation of Raptor ([4]; combination of Vitamin D plus temsirolimus): 1.0 µM
Raptor expression ([4]; temsirolimus 0.3 μM (culture 9), versus 1.0 μM): higher levels of Raptor expression
IL-7 receptor alpha RNA expression [5, 10]: capable of up-regulating
KLF4 RNA expression [5, 10]: neither temsirolimus nor Vitamin D alone increased
KLF10 RNA expression [5, 10]: acts alone to beneficially up-regulate
Nanog RNA expression ([5]; Vitamin D 0.1 or 1.0 nM): up-regulation
Rictor expression (western blot, FIG. 6) [6]: effective
preferable concentration for T cell yield ([7]; de-differentiation interval): 1.0 µM
T cell yield at day 13 of culture ([7]; temsirolimus concentration reduced to 0.1 μM (column #7)): reduced the resultant T cell yield
CD4+ CD45RA+ naïve T cell population (CD4+ T cells; elimination of temsirolimus during the initial culture interval (culture #6)): depletion of the naïve T cell population
frequency of CD4+ triple-positive (CD62L, CCR7, CD127) T cells (CD4+ T cells; reducing or eliminating only temsirolimus from the initial culture interval (columns #5 and 6)): greatly reduced the frequency of triple-positive T cells

B1: IL-4: Th2 polarizing cytokine added to re-differentiation culture (protein, UniProt P05112 25-153, looked up)
Interleukin-4: HKCDITLQEIIKTLNSLTEQKTLCTELTVTDIFAASKNTTEKETFCRAATVLRQFYSHHEKDTRCLGATAQQFHRHKQLIRFLKRLDRNLWGLAGLNSCPVKEANQSTLENFLERLKTIMREKYSKCSS
frequency of GATA3-positive T cells (CD4+ and CD8+ T cells): greatly reduced frequency of GATA3-positive T cells
GM-CSF secretion [8]: higher levels
IFN-γ secretion [8]: higher levels
TNF-α secretion [8]: higher levels

B2: Daclizumab: anti-IL-2 receptor monoclonal antibody (antibody, chains of the INN, looked up, V domains shown)
VH: QVQLVQSGAEVKKPGSSVKVSCKASGYTFTSYRMHWVRQAPGQGLEWIGYINPSTGYTEYNQKFKDKATITADESTNTAYMELSSLRSEDTAVYYCARGGGVFDYWGQGTLVTVSS
VL: DIQMTQSPSTLSASVGDRVTITCSASSSISYMHWYQQKPGKAPKLLIYTTSNLASGVPARFSGSGSGTEFTLTISSLQPDDFATYYCHQRSTYPLTFGQGTKVEVK
Raptor expression (western blot, normalized by actin) ([4]; 3-day culture, bead:T cell 1:3, temsirolimus 1.0 μM, Vitamin D 0.1 nM, Daclizumab 50 μg/ml): beneficial role in suppressing
Rictor expression (western blot, FIG. 6) [6]: did not abrogate
BIM expression (western blot, normalized by actin) [9]: beneficial role in suppressing
